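In this assay, cells in 96-well plates receive the compound at five concentrations for 48 hours. Endpoints are linearly interpolated between the surrounding concentrations. GI50 = concentration required for 50% inhibition of growth.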 Activity calls are given as the source filed them. No stated cut-off is given here; in the data, active = GI50 up to about 1.1 µM and inactive = higher.
Assays:
Experiment in all cases: NCI tumour cell line growth inhibition, 48 h
[1] = test system: RPMI-8226
[2] = test system: NCI-H460
[3] = test system: MOLT-4
[4] = test system: SF-268
[5] = test system: SK-MEL-5
[6] = test system: 786-0
[7] = test system: SW-620
[8] = test system: CCRF-CEM
[9] = test system: HL-60
[10] = test system: SNB-75
[11] = test system: MDA-N
[12] = test system: ACHN
[13] = test system: T47D
[14] = test system: MDA-MB-435
[15] = test system: SNB-19
[16] = test system: NCI/ADR-RES
[17] = test system: SF-295
[18] = test system: HOP-92
[19] = test system: Malme-3M
[20] = test system: HT-29

Measured: GI50

CCCCCCCC1(N=[N+]=[N-])C(=O)Nc2ccccc2C1=O (stereo not given)
inactive: [1] 25.5 µM | [2] 21.4 µM | [3] 10.4 µM | [4] 15.6 µM | [5] 15.1 µM | [6] 16.6 µM | [7] 12.4 µM | [8] 17.1 µM | [9] > 10 µM | [10] 14 µM | [11] 19.8 µM | [12] 14.4 µM | [13] 14.6 µM | [14] 18.2 µM | [15] 17.5 µM | [16] 18.9 µM | [17] 17.3 µM | [18] 13.6 µM | [19] 17.7 µM | [20] 22.6 µM

CCCCC(=O)OC[n+]1cccc(-c2c(COC(=O)NC(C)C)c(COC(=O)NC(C)C)c3n2CCC3)c1
inactive: [1] 30 µM | [2] 15 µM | [3] 8.93 µM | [4] 24.8 µM | [5] 35.6 µM | [6] 23.1 µM | [7] 38.5 µM | [8] 7.93 µM | [9] 10.7 µM | [10] 50 µM | [11] 99.1 µM | [12] 21.3 µM | [13] > 83.2 µM | [14] 64.9 µM | [15] > 92.3 µM | [16] 34.9 µM | [17] 52.2 µM | [18] 26.3 µM | [19] 32.7 µM | [20] 43 µM

O=C(NC(O)(C(F)(F)F)C(F)(F)F)c1ccccc1
inactive: [1] > 100 µM | [2] > 100 µM | [3] > 100 µM | [4] > 100 µM | [5] > 100 µM | [6] > 100 µM | [7] > 100 µM | [8] > 100 µM | [9] > 100 µM | [10] > 100 µM | [11] > 100 µM | [12] > 100 µM | [13] > 100 µM | [14] > 100 µM | [15] > 100 µM | [16] > 100 µM | [17] > 100 µM | [18] > 100 µM | [19] > 100 µM | [20] > 100 µM

CN(C)/N=C1/CCC(C(F)(F)F)(C(F)(F)F)O1
inactive: [1] 31.5 µM | [2] 41 µM | [3] 37.2 µM | [4] 43.5 µM | [5] 21.9 µM | [6] 29.4 µM | [7] 40.6 µM | [8] 30.2 µM | [9] 28.3 µM | [10] 26.3 µM | [11] 48.3 µM | [12] 35.6 µM | [13] 33.2 µM | [14] 27.5 µM | [15] 41.8 µM | [16] 26.6 µM | [17] 39.5 µM | [18] 32.7 µM | [19] 23.3 µM | [20] 41.8 µM

CN(C)c1n/c(=N/Cc2ccncc2)ss1
inactive: [1] 21 µM | [2] > 100 µM | [3] 20.3 µM | [4] 46.2 µM | [5] > 10 µM | [6] 17.4 µM | [7] 23.9 µM | [8] 13.6 µM | [9] 4.39 µM | [10] 18.4 µM | [11] 21.7 µM | [12] 13.5 µM | [13] 10.7 µM | [14] 38.9 µM | [15] > 71.4 µM | [16] > 72.8 µM | [17] > 90.8 µM | [18] > 63.1 µM | [19] 18.5 µM | [20] 19.3 µM

Reference: ChEMBL document CHEMBL1201862, “PubChem BioAssay data set” (2004)
